Data published in patent US20110098298A1, “New Pyridin-3-Amine Derivatives” (priority 2006, published 2011).

Experiments:
[1] = target: T1, human p38alfa (SAPKa) enzyme (Homo sapiens, UniProt Q16539); experiment: p38alpha enzymatic inhibition assay (FRET, ATF2 substrate); assay type: biochemical; conditions: 1 h pre-incubation, ATP 60 μM, ATF2 0.62 μM, 25° C., read-out: p38α IC50
T1 construct: purchased University of Dundee
Description: Enzymatic activity assay was performed in 96-well microtiter plates (Corning, catalog number # 3686) using a total volume of 50 μl of an assay buffer composed of 50 mM HEPES pH 7.5, 10 mM MgCl2, 1.75 mM Na3VO4.
Various concentrations of the test compound or vehicle controls were pre-incubated for one hour with 0.055 μg/ml of the human p38alfa (SAPKa) enzyme (obtained from University of Dundee). […] Addition of the detection reagents, streptavidin-XL665 and anti-phosphoresidue antibody coupled to Europium cryptate, caused the juxtaposition of the cryptate and the XL665 fluorophore, resulting in fluorescence energy transfer (FRET). The FRET intensity depends on the amount of bounded cryptate antibody, which is proportional to the extent of substrate phosphorylation. FRET intensity was measured using Victor 2V spectrofluorometer. Data were analyzed by non-linear regression (Hill equation) to generate a dose-response curve. The calculated IC50 value is the concentration of the test compound that caused a 50% decrease in the maximal FRET intensity.

[2] = test system: TNFα production in human monocytic cell line THP-1; experiment: Inhibition of LPS-induced TNFα production in THP-1 cells; assay type: cell-based; conditions: LPS 10 μg/ml, 5 h, TNFα ELISA
Description: The activity of compounds in inhibiting TNFα production was measured in a cellular assay using the human monocytic cell line THP-1. For this purpose, 2×10^5 cells/well were plated in tissue-culture treated round-bottom 96-well plates in RPMI (containing 10% FCS, L-Gln 2 mM, Hepes buffer 10 mM, sodium pyruvate 1 mM, glucose 4.5 gr/L, HNaCO3 1.5 g/L and beta-mercaptoethanol 50 μM), together with compounds at the desired test concentration and LPS (Sigma, L2630) at a final 10 μg/ml concentration. Compounds were resuspended in 100% DMSO at a concentration of 1 mM and titrated thereof in 10× dilutions in medium. Controls included stimulated cells alone and stimulated cells treated with the highest concentration of compound vehicle (1% DMSO). Cells were incubated for 5 h at 37° C. in a 5% CO2 atmosphere. Cell supernatant was recovered by centrifugation and diluted 5-fold prior to testing in a standard human TNFα ELISA (RnD systems).
Data were analyzed by non-linear regression (Hill equation) to generate a dose-response curve. The calculated IC50 value is the concentration of the test compound that caused a 50% decrease in the maximal TNFα production.

T1 sequence (Q16539 whole entry): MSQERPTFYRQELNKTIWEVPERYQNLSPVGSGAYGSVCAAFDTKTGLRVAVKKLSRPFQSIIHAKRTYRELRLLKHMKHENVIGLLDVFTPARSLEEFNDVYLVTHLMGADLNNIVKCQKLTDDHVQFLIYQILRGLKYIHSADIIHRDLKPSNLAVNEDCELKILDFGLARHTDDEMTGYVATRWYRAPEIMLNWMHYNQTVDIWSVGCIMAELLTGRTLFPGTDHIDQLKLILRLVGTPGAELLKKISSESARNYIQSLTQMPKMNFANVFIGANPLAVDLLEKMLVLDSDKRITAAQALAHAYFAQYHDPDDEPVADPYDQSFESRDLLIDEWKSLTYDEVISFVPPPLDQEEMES

Row | SMILES | IC50 [1] | IC50 [2]
1 | Nc1c(C(=O)c2ccc(F)cc2F)ccnc1-c1ccccc1Cl [Example 25, [3-Amino-2-(2-chlorophenyl)pyridin-4-yl](2,4-difluorophenyl)methanone] | 251 nM | 130 nM
2 | Nc1c(C(=O)c2ccc(F)cc2F)cc[n+]([O-])c1-c1ccccc1Cl [Example 26, [3-Amino-2-(2-chlorophenyl)-1-oxidopyridin-4-yl](2,4-difluorophenyl)methanone] |  | 76 nM
3 | Nc1c(C(=O)c2ccc(F)cc2F)cc[n+]([O-])c1-c1c(Cl)cccc1Cl [Example 32, [3-Amino-2-(2,6-dichlorophenyl)-1-oxidopyridin-4-yl](2,4-difluorophenyl)methanone] |  | 19.4 nM
4 | Cc1cccc(C)c1-c1c(N)c(C(=O)c2ccc(F)cc2F)cc[n+]1[O-] [Example 36, [3-Amino-2-(2,6-dimethylphenyl)-1-oxidopyridin-4-yl](2,4-difluorophenyl)methanone] |  | 33 nM
5 | Cc1cc(O)ccc1-c1nccc(C(=O)c2ccc(F)cc2F)c1N [Example 47, [3-Amino-2-(4-hydroxy-2-methylphenyl)pyridin-4-yl](2,4-difluorophenyl)methanone] | 277 nM | 402 nM
6 | Cc1cc(O)ccc1-c1c(N)c(C(=O)c2ccc(F)cc2F)cc[n+]1[O-] [Example 48, [3-Amino-2-(4-hydroxy-2-methylphenyl)-1-oxidopyridin-4-yl](2,4-difluorophenyl)methanone] |  | 84 nM
7 | Nc1c(C(=O)c2ccc(F)cc2F)ccnc1-c1cccc2c1OCO2 [Example 79, [3-Amino-2-(1,3-benzodioxol-4-yl)pyridin-4-yl](2,4-difluorophenyl)methanone] | 103 nM | 53 nM
8 | Cc1ccccc1-c1c(N)c(C(=O)c2ccccc2Cl)cc[n+]1[O-] [Example 82, [3-Amino-2-(2-methylphenyl)-1-oxidopyridin-4-yl](2-chlorophenyl)methanone] | 31 nM | 118 nM
9 | Cc1cccc(C(=O)c2cc[n+]([O-])c(-c3ccccc3C)c2N)c1 [Example 92, [3-Amino-2-(2-methylphenyl)-1-oxidopyridin-4-yl](3-methylphenyl)methanone] | 34 nM | 54 nM
10 | Cc1cccc(C(=O)c2cc[n+]([O-])c(-c3c(F)cccc3F)c2N)c1 [Example 98, [3-Amino-2-(2,6-difluorophenyl)-1-oxidopyridin-4-yl](3-methylphenyl)methanone] | 20 nM | 48 nM
11 | Nc1c(C(=O)c2cccc(F)c2)ccnc1-c1cccc2c1OCO2 [Example 109, [3-Amino-2-(1,3-benzodioxol-4-yl)pyridin-4-yl](3-fluorophenyl)methanone] | 359 nM | 349 nM
12 | COc1ccccc1C(=O)c1cc[n+]([O-])c(-c2c(F)cccc2F)c1N [Example 118, [3-Amino-2-(2,6-difluorophenyl)-1-oxidopyridin-4-yl](2-methoxyphenyl)methanone] | 86 nM | 140 nM
13 | COc1ccccc1C(=O)c1cc[n+]([O-])c(-c2c(C)cccc2C)c1N [Example 120, [3-Amino-2-(2,6-dimethylphenyl)-1-oxidopyridin-4-yl](2-methoxyphenyl)metha-none] | 146 nM | 98 nM
